Test [1] deals with U-937. Put plainly: Cytotoxicity screening, U-937 (alamar blue). In kind it is cell-based, human. The conditions noted are these: for EC50: 5 d, alamar blue. The method, then: (§1) Half maximal effective concentrations (EC50) on human cancer cell lines were determined as described elsewhere. Human cancer cell lines were maintained as recommended by the depositor (German Collection of Microorganisms and Cell Cultures, DSMZ) and were treated for 5 d with carolacton in serial dilution. The viability of adherent cell types, HCT-116 (ACC 581), KB-3.1 (ACC-158) and KB-V.1 (ACC-149) was assessed by the addition of MTT tetrazolium salt and absorbance measurement at 570 nm. Histiocytic lymphoma U-937 cells (ACC-5) were maintained in RPMI 1640 medium and transferred into folate-free medium prior to the assay. Cell viability was determined by measuring alamar blue fluorescence emission at 590 nm. The values were referenced and EC50 values were determined by sigmoidal curve fitting. The cell lines KB-3.1 and KB-V.1 are originally derived from HeLa, whereas the latter is an MDR subclone of KB-3.1. They were used to directly compare the activity of carolacton on an mdr1 overexpressing and a sensitive cell line.
In general terms: Resazurin is reduced to fluorescent resorufin, in cell work by metabolically active cells.

Test [2] deals with T1, hsMTHFD2 (Homo sapiens, UniProt P13995).
T1 construct: His-tag (vector pHis-TEV) (cleaved yes); made in house; host or cells: E. coli BL21 (DE3)
T1 sequence (P13995 36-350): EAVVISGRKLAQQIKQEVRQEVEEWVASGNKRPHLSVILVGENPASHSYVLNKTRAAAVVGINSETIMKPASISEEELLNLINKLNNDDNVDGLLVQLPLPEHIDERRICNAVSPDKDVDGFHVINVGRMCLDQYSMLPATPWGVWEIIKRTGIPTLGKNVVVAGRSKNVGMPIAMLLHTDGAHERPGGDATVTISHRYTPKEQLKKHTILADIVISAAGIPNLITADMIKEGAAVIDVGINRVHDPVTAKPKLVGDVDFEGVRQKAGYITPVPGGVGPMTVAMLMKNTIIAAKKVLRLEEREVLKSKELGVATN
Nature of the test: SPR binding to hsMTHFD2. The method, then: All surface plasmon resonance (SPR) experiments described in this study were performed on a Biacore X100 system. Different FolDs with or without His-tag were coupled on CM5 sensor chips (GE Healthcare) by the amine coupling method using a kit from GE Healthcare Life Sciences (Freiburg, Germany). A pH scouting process was performed before protein immobilization to test the most appropriate buffer and the protein concentration for protein coupling. Finally, 20 μg/mL of ecFolD in 10 mM maleate buffer (pH 6.8), 30 μg/mL of ecFolD Q98H in 10 mM maleate buffer (pH 6.3), 40 μg/mL of ecFolD K54N in 10 mM maleate buffer (pH 5.8), 20 μg/mL of spFolD in 10 mM maleate buffer (pH 6.0) and 15 μg/mL of MTHFD2 (His-tag cleaved) in 10 mM maleate buffer (pH 6.8) were used for coupling. In the protein immobilization procedure, the contact time was calculated based on the pH scouting results to achieve ~3000–5000 relative resonance units (RU). The buffer used in the SPR assays was 1× HBS-P buffer (10 mM HEPES pH 7.4, 150 mM NaCl, 0.05% Tween 20). The 1 mM stock solution of carolacton was prepared in 1× HBS-P buffer and diluted to different concentration ranges by two-fold serial dilution. In the SPR assay, the association time was 180 s and the dissociation time was 600 s. Data analysis was performed using the Biacore evaluation software. […]

Test [3] concerns KB-3.1. Nature of the test: Cytotoxicity screening, KB-3.1 (MTT). In kind it is cell-based, human. Conditions: for EC50: 5 d treatment, MTT. On the procedure: as §1

As a reminder, the EC50 is the concentration at which the effect is half-maximal. Low readings indicate a more potent agent, high ones a less potent agent. One may read the koff as the rate constant with which the complex falls apart. Lower therefore signals slow dissociation. By Kd is commonly meant the equilibrium constant for the complex coming apart. In the case of `CO[C@H](CC(=O)O)[C@@H](C)C(=O)[C@H](C)/C=C(\C)[C@H]1OC(=O)[C@H](O)[C@H](O)/C=C/[C@H](C)CCC[C@@H]1C` [carolacton], the EC50 was 42 µM in test [1] (Homo sapiens, U-937, 120 h, folate-depleted medium); above 100 µM in test [1] (Homo sapiens, U-937, 120 h, normal culture medium (RPMI 1640)); 41.7 ± 15.2 µM in test [1] (folate-depleted medium); 11.3 ± 3.6 µM in test [3]; 11 µM in test [3] (Homo sapiens, KB 3-1, 120 h). The Maximum inhibition in test [1] (folate-depleted medium) is reported as 65–75%; in test [3] (inhibition of cell growth, 5 d), above 80%. This molecule also showed a koff in test [2] of 0.0222 s⁻¹. In test [2] (1:1 interaction model fit of association and dissociation signals), this molecule had a Kd of 0.019 µM.
